From patent US6503698B1, “Cryopreservation of swine embryos” (The United States of America as represented by the …, priority 2000, dated 2003)
Marks after values point to notes of the source that are not given here.

Tested on: swine embryos
Assay: Progressive development in vitro of swine embryos after cryopreservation by vitrification under the influence of microfilament stabilizer cytochalasin-b
Format: cell-based
Settings: for % dev (progressive development in vitro after vitrification) / dev (number of embryos developed in vitro after vitrification): + cytochalasin-b
Procedure: Cyto-b is added to the medium for MF depolymerization. Studies were carried out which documented microfilament (MF) alterations during swine embryo vitrification (Dobrinsky et al. 2000, supra).
Developmental appraisals of the centrifuged cryopreserved embryos were carried out both in vitro and in vivo. For in vitro studies, morulae/blastocysts were cultured for 72 hours post-treatment. After culture, embryos were morphologically evaluated for their developmental progression. […] Since all morulae would have to develop into
Embryos were vitrified as described by Dobrinsky and Johnson (supra) in vitrification medium [6.5M glycerol, 6% bovine serum albumin-V (BSA-V; Sigma Chemical Co., St. Louis, Mo.)]. Prior to cryopreservation, for microfilament depolymerization, embryos were incubated at 39° C. in 5% CO2 and air, 95% humidity for 30-45 min in culture medium containing 7.5 μg/ml cyto-b (Sigma Chemical co., supra; stock=5 mg/ml 95% food grade EtOH). Following incubation in cyto-b, embryos were removed from culture and washed 3 times in 2 ml handling medium with cyto-b for 5 min and then equilibrated in 1 ml handling medium containing 6% BSA-V and cyto-b for 5 min. Embryos were then washed in vitrification equilibration medium (25% glycerol v/v, 6% BSA-V) containing cyto-b, then placed in 20 μl of vitrification equilibration medium containing cyto-b in a 1.5-ml microcentrifuge tube. The tube was placed and counterbalanced in an Eppendorf 5415 microcentrifuge and centrifuged for 13 min at 13,000 rpm. During centrifugation, embryos were dehydrated and equilibrated with glycerol. Total time in vitrification equilibration medium was about 20 min, including the centrifugation time.

C=C1[C@@H](C)[C@H]2[C@H](Cc3ccccc3)NC(=O)[C@]23OC(=O)/C=C/[C@H](O)CCC[C@@H](C)C/C=C/[C@H]3[C@@H]1O [Cytochalasin-b]
% dev (progressive development in vitro after vitrification) (HB1 = hatched blastocysts <400 μm diameter): 90^c;z % | dev (number of embryos developed in vitro after vitrification) (HB1 = hatched blastocysts <400 μm diameter, n 48): 43 | % dev (progressive development in vitro after vitrification) (HB2 = hatched blastocysts >400 μm diameter): 41% | dev (number of embryos developed in vitro after vitrification) (HB2 = hatched blastocysts >400 μm diameter, n 22): 9 | % dev (progressive development in vitro after vitrification) (MB = morulae/early blastocysts): 6^a % | dev (number of embryos developed in vitro after vitrification) (MB = morulae/early blastocysts, n 17): 1 | % dev (progressive development in vitro after vitrification) (XB = expanded blastocysts): 60^b;z % | dev (number of embryos developed in vitro after vitrification) (XB = expanded blastocysts, n 25): 15 | survival and development of expanded and hatched blastocysts after vitrification (expanded and hatched blastocysts, versus control without cyto-b): significantly (p<0.05) improved survival and development | morula/early blastocyst viability after vitrification (morulae/early blastocysts, versus control without cyto-b): did not appear to improve
